Like-named read-outs stand apart in the source and are kept apart here.
Columns and labels:
HCV Replicon 1b = experiment: HCV inhibition assay, HCV replicon 1b (Clone A or ET-lunet cells; RT-PCR or luciferase reporter); assay type: cell-based; conditions: Hepatitis C virus, 96 h, read-out: Replicon 1b potency EC90
In short: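 Clone A (1500/well) or ET-lunet (3000/well) replicon cells treated with serially diluted compounds (0.5% DMSO, no G418) for 4 days at 37 °C. HCV RNA measured by one-step RT-PCR normalized to rRNA (ΔΔCt) or by luciferase luminescence versus DMSO controls; EC50/EC90 by curve fitting.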

[1] = Cell cytotoxicity assay (MTS), CC90 as reported in Table 1, cell line not stated; assay type: cell-based; conditions: human; MTS assay; 8 days incubation; cell line not given
In short: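 Compounds, serially diluted from 100 μM, were incubated 8 days at 37° C with Huh7, HepG2 or BxPC3 (2×10^3 cells/well) or CEM (5×10^3 cells/well). Viability was read by MTS, 2 h, absorbance 490 nm. CC90 (90% inhibition) was taken against untreated cells.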

[2] = HCV replicon 1b, 4 days incubation

Structure (SMILES) | EC90 (HCV Replicon 1b; [2]) [µM] | CC90 at 8 days [1] [µM] | EC90 (HCV Replicon 1b) [µM]
CSC[C@H]1C(=O)N[C@@H](c2ccccc2)CN1C(=O)[C@@H]1C[C@H]1c1ccc(F)cc1 [Compound 460, (3R,6S)-4-((1R,2R)-2-(4-fluorophenyl)cyclopropanecarbonyl)-3-((methylthio)-methyl)-6-phenylpiperazin-2-one] | 1.16 | > 10 | –
C=CC[C@H]1C(=O)N[C@@H](c2ccccc2)CN1C(=O)[C@@H]1C[C@H]1c1ccc(F)cc1 [Compound 462, (3S,6S)-3-allyl-4-((1R,2R)-2-(4-fluorophenyl)cyclopropanecarbonyl)-6-phenyl-piperazin-2-one] | 1.52 | > 10 | –
CC(C)C[C@H]1C(=O)N[C@@H](C2CCC2)CN1C(=O)[C@@H]1C[C@H]1c1ccc(F)cc1 [Compound 464, (3S,6S)-6-cyclobutyl-4-((1R,2R)-2-(4-fluorophenyl)cyclopropanecarbonyl)-3-isobutylpiperazin-2-one] | 0.83 | > 10 | –
C=CC[C@H]1C(=O)N[C@@H](c2ccccc2)CN1C(=O)c1noc(-c2ccc(F)cc2)n1 [Compound 465, (3S,6S)-3-allyl-4-(5-(4-fluorophenyl)-1,2,4-oxadiazole-3-carbonyl)-6-phenyl-piperazin-2-one] | 0.29 | > 10 | –
CSC[C@H]1C(=O)N[C@@H](c2ccccc2)CN1C(=O)c1noc(-c2ccc(F)cc2)n1 [Compound 466, (3R,6S)-4-(5-(4-fluorophenyl)-1,2,4-oxadiazole-3-carbonyl)-3-((methylthio)methyl)-6-phenylpiperazin-2-one] | 0.65 | > 10 | –
CC(C)C[C@H]1C(=O)N[C@@H](C2CCC2)CN1C(=O)c1noc(-c2ccc(F)cc2)n1 [Compound 467, (3S,6S)-6-cyclobutyl-4-(5-(4-fluorophenyl)-1,2,4-oxadiazole-3-carbonyl)-3-isobutylpiperazin-2-one] | 0.25 | > 10 | –
CSC[C@H]1C(=O)N[C@@H](c2ccccc2)CN1C(=O)c1cc(-c2ccc(F)cc2)on1 [Compound 468, (3R,6S)-4-(5-(4-fluorophenyl)isoxazole-3-carbonyl)-3-((methylthio)methyl)-6-phenylpiperazin-2-one] | 0.69 | > 10 | –
O=C1N[C@@H](c2ccccc2)CN(C(=O)[C@@H]2C[C@H]2c2ccc(F)cc2)[C@H]1c1cccs1 [Compound 469, (3R,6S)-4-((1R,2R)-2-(4-fluorophenyl)cyclopropanecarbonyl)-6-phenyl-3-(thiophen-2-yl)piperazin-2-one] | 1.06 | > 10 | –
O=C1N[C@@H](c2ccccc2)CN(C(=O)c2cc(-c3ccc(F)cc3)on2)[C@H]1c1cccs1 [Compound 471, (3R,6S)-4-(5-(4-fluorophenyl)isoxazole-3-carbonyl)-6-phenyl-3-(thiophen-2-yl)piperazin-2-one] | 0.57 | > 10 | –
O=C1N[C@@H](c2ccccc2)CN(C(=O)c2noc(-c3ccc(F)cc3)n2)[C@H]1c1cccs1 [Compound 472, (3R,6S)-4-(5-(4-fluorophenyl)-1,2,4-oxadiazole-3-carbonyl)-6-phenyl-3-(thiophen-2-yl)piperazin-2-one] | 1.2 | > 10 | –
CC(C)C[C@H]1C(=O)N[C@H](C2CCOCC2)CN1C(=O)c1noc(-c2ccc(F)cc2)n1 [Compound 473, (3S,6R)-4-(5-(4-fluorophenyl)-1,2,4-oxadiazole-3-carbonyl)-3-isobutyl-6-(tetrahydro-2H-pyran-4-yl)piperazin-2-one] | > 10 | > 10 | –
CC(C)C[C@H]1C(=O)N[C@@H](C2CCOCC2)CN1C(=O)c1noc(-c2ccc(F)cc2)n1 [Compound 474, (3S,6S)-4-(5-(4-fluorophenyl)-1,2,4-oxadiazole-3-carbonyl)-3-isobutyl-6-(tetrahydro-2H-pyran-4-yl)piperazin-2-one] | 0.35 | > 10 | –
CC(C)C[C@H]1C(=O)N[C@H](C2CCOCC2)CN1C(=O)[C@@H]1C[C@H]1c1ccc(F)cc1 [Compound 475, (3S,6R)-4-((1R,2R)-2-(4-fluorophenyl)cyclopropanecarbonyl)-3-isobutyl-6-(tetrahy-dro-2H-pyran-4-yl)piperazin-2-one] | > 10 | > 10 | –
CC(C)C[C@H]1C(=O)N[C@@H](C2CCOCC2)CN1C(=O)[C@@H]1C[C@H]1c1ccc(F)cc1 [Compound 476, (3S,6S)-4-((1R,2R)-2-(4-fluoro-phenyl)cyclopropanecarbonyl)-3-isobutyl-6-(tetrahydro-2H-pyran-4-yl)piperazin-2-one] | 0.23 | > 10 | –
CC(C)C[C@H]1C(=O)N[C@H](c2ccco2)CN1C(=O)c1cc(-c2ccc(F)cc2)on1 [Compound 483, (3S,6S)-4-(5-(4-fluorophenyl)isoxazole-3-carbonyl)-6-(furan-2-yl)-3-isobutyl-piperazin-2-one] | > 10 | > 10 | –
CC(C)C[C@H]1C(=O)N[C@@H](c2ccco2)CN1C(=O)c1cc(-c2ccc(F)cc2)on1 [Compound 484, (3S,6R)-4-(5-(4-fluorophenyl)isoxazole-3-carbonyl)-6-(furan-2-yl)-3-isobutylpiperazin-2-one] | 0.18 | > 10 | –
CC(C)C[C@H]1C(=O)N[C@H](c2ccc(Cl)s2)CN1C(=O)c1cc(-c2ccc(F)cc2)on1 [Compound 485, (3S,6S)-6-(5-chlorothiophen-2-yl)-4-(5-(4-fluorophenyl)isoxazole-3-carbonyl)-3-isobutylpiperazin-2-one] | > 10 | > 10 | –
CC(C)C[C@H]1C(=O)N[C@@H](c2ccc(Cl)s2)CN1C(=O)c1cc(-c2ccc(F)cc2)on1 [Compound 488, (3S,6R)-6-(5-chlorothiophen-2-yl)-4-(5-(4-fluorophenyl)isoxazole-3-carbonyl)-3-isobutylpiperazin-2-one] | 0.7 | > 10 | –
CCC[C@H]1C(=O)N[C@@H](c2cccs2)CN1C(=O)c1cc(-c2ccc(F)cc2)on1 [Compound 491, (3S,6R)-4-(5-(4-fluorophenyl)isoxazole-3-carbonyl)-3-propyl-6-(thiophen-2-yl)piper-azin-2-one] | 0.25 | > 10 | –
CCC[C@H]1C(=O)N[C@@H](c2cccs2)CN1C(=O)[C@@H]1C[C@H]1c1ccc(F)cc1 [Compound 495, (3S,6R)-4-((1R,2R)-2-(4-fluorophenyl)cyclopropanecarbonyl)-3-propyl-6-(thiophen-2-yl)piperazin-2-one] | 0.29 | > 10 | –
CC(C)C[C@H]1C(=O)N[C@@H](c2ccsc2Cl)CN1C(=O)[C@@H]1C[C@H]1c1ccc(F)cc1 [Compound 500, (3S,6S)-6-(2-chlorothiophen-3-yl)-4-((1R,2R)-2-(4-fluorophenyl)cyclopropane-carbonyl)-3-isobutylpiperazin-2-one] | 0.022 | > 10 | –
C=C[C@H]1CN(C(=O)c2cc(-c3ccc(F)cc3)on2)[C@@H](CC(C)C)C(=O)N1 [Compound 506, (3S,6S)-4-(5-(4-fluorophenyl)isoxazole-3-carbonyl)-3-isobutyl-6-vinylpiperazin-2-one] | 1.05 | > 10 | –
CC(C)C[C@H]1C(=O)N[C@@H](C(=O)N(C)C)CN1C(=O)c1cc(-c2ccc(F)cc2)on1 [Compound 507, (2R,5S)-4-(5-(4-fluorophenyl)isoxazole-3-carbonyl)-5-isobutyl-N,N-dimethyl-6-oxopiperazine-2-carboxamide] | 0.84 | > 10 | –
CNC(=O)[C@H]1CN(C(=O)c2cc(-c3ccc(F)cc3)on2)[C@@H](CC(C)C)C(=O)N1 [Compound 508, (2R,5S)-4-(5-(4-fluorophenyl)isoxazole-3-carbonyl)-5-isobutyl-N-methyl-6-oxopiperazine-2-carboxamide] | > 10 | > 10 | –
CC(C)C[C@H]1C(=O)N[C@@H](c2ncco2)CN1C(=O)c1cc(-c2ccc(F)cc2)on1 [Compound 510, (3S,6R)-4-(5-(4-fluorophenyl)isoxazole-3-carbonyl)-3-isobutyl-6-(oxazol-2-yl)piperazin-2-one] | > 10 | > 10 | –
CC(C)C[C@H]1C(=O)N[C@@H](c2ccccc2)CN1C(C)c1cc(-c2ccc(F)cc2)on1 (stereo partly drawn) [Compound 511, (3S,6S)-4-(1-(5-(4-fluorophenyl)isoxazol-3-yl)ethyl)-3-isobutyl-6-phenylpiperazin-2-one] | 0.45 | > 10 | –
CC(C)C[C@H]1C(=O)N[C@@H](c2cnco2)CN1C(=O)c1cc(-c2ccc(F)cc2)on1 [Compound 516, (3S,6R)-4-(5-(4-fluorophenyl)isoxazole-3-carbonyl)-3-isobutyl-6-(oxazol-5-yl)piperazin-2-one] | – | > 10 | 0.11
CC(C)C[C@H]1C(=O)N[C@@H](c2cnco2)CN1C(=O)[C@@H]1C[C@H]1c1ccccc1 [Compound 517, (3S,6R)-3-isobutyl-6-(oxazol-5-yl)-4-((1R,2R)-2-phenylcyclopropane-carbonyl)piperazin-2-one] | 0.19 | > 10 | –
CC(C)C[C@H]1C(=O)N[C@@H](c2cnco2)CN1C(=O)c1noc(-c2ccc(F)cc2)n1 [Compound 518, (3S,6R)-4-(5-(4-fluorophenyl)-1,2,4-oxadiazole-3-carbonyl)-3-isobutyl-6-(oxazol-5-yl)piperazin-2-one] | 0.058 | > 10 | –
CC(C)C[C@H]1C(=O)N[C@@H](c2cnco2)CN1C(=O)c1cc(-c2ccc(F)cc2)no1 [Compound 519, (3S,6R)-4-(3-(4-fluorophenyl)isoxazole-5-carbonyl)-3-isobutyl-6-(oxazol-5-yl)piperazin-2-one] | 0.11 | > 10 | –

From patent US20120202794A1 (priority 2011, published 2012)
